Experiments:
[1] = test system: premature translation termination (stop codon-containing luciferase RNA); assay: Biochemical suppression assay using RRL (rabbit reticulocyte lysate) and luciferase RNA; details: WT or stop codon luciferase RNA, incubated 45 or 90 minutes, FIGS. 7A-B
Protocol: In vitro translation assays were performed in the presence of RRL, luciferase RNA (panel A, WT; panel B, stop codon) and the indicated concentrations of gentamycin. Reactions were incubated 45 or 90 minutes before luciferase activity was determined. WT and stop codon containing RNA are schematically shown. The reactions were performed in either a 96 or 384 well format. In vitro synthesized reporter RNA (see constructs in FIG. 5) was added to 15 μL of fully supplemented rabbit reticulocyte lysate according to standard methodology (prepared by the method of Jackson & Hunt, Methods in Enzymology 96:50–75 (1983). 0.5 to 1 μg of in vitro transcribed RNA was used per reaction. The reaction was mixed with 15 μL of a 2% DMSO solution containing 20 μM of test compound. The reaction was incubated for 90 minutes at 30° C. in a humidified incubator. Luciferase substrate was added and luciferase activity was read on a Torcon automated reader (see FIGS. 6–7).

[2] = test system: premature stop codons in the dystrophin gene; details: mdx mouse, Barton-Davis et al. 1999; cited from earlier work
[3] = test system: premature translation termination (luciferase reporter with premature stop codon); assay: Suppression assay in cells transiently transfected with stop codon luciferase plasmids; assay type: cell-based; details: cells transiently infected with pMLT49, pMLT54 or pMLT55h for 24 hours; 12 hour exposure; FIGS. 2A-C
Protocol: Cells, transiently infected with the indicated plasmids for 24 hours, were exposed to the indicated concentration of G418 (panel A, pMLT49; panel B, pMLT54; panel C, pMLT55h). Luciferase activity was measured after a 12 hour exposure.

[4] = test system: premature translation termination and NMD (luciferase reporter with premature stop codon); assay: Cell-based assay, 293 cells stably transfected with pMLT55, luciferase activity; details: 12 hour exposure
Protocol: The indicated independent clones were exposed to the indicated concentrations of G418. Luciferase activity was measured after a 12 hour exposure.
The indicated cell numbers were plated per well of a 96 well plate. Cells were exposed to the indicated concentrations of G418. Luciferase activity was measured after a 12 hour exposure on a robotic 96 well plate reader. Gentamycin was also used to inhibit NMD and premature translation termination.
On day 1, clone 55–31, a 293 cell line stably transfected with pMLT 55 (see FIG. 1) was plated in 96 well plates in the morning in DMEM media with 10% fetal bovine serum. Approximately 80 plates are plated at 40,000 cells per well in 100 μL. The cells were incubated overnight at 37° C.
On day two, test compounds (1 μL of 1 mM stock solution in 100 μL DMSO; 10 μM final concentration) were added. G418 (1 mg/ml) was added to column 12 of each plate as a control. The plates were incubated at 37° C. for 12–16 hours.
On day three, luciferase substrate was added to the cells and the plates were read on a Torcon automated luciferase assay reader for 96 well plates (see, e.g., FIGS. 3–4). Luciferase substrate is commercially available, e.g., from Promega.

gentamycin
Suppression by gentamycin (luciferase activity) [1]: time dependent

gentamycin sulfate
Suppression of translational termination at premature stop codons [2]: found to suppress translational termination at premature stop codons in the dystrophin gene

CN[C@@H]1[C@@H](O)[C@@H](O[C@@H]2[C@@H](O)[C@H](O[C@H]3O[C@H]([C@@H](C)O)[C@@H](O)[C@H](O)[C@H]3N)[C@@H](N)C[C@H]2N)OC[C@]1(C)O [G418]
G418-mediated suppression (luciferase activity) [3]: not cell line specific | G418-mediated suppression (luciferase activity), high throughput format ([4]; clone #31, 96 well plate, FIG. 4): suppression in a stably transfected 293 cell line (clone #31) in high throughput format | G418-mediated suppression (relative luciferase activity, fold activation) ([4]; independent clones of 293 cells stably transfected with pMLT55, FIGS. 3A-B): suppression in various clones of stably transfected 293 cells
